Series [1] relates to BV-2. The series is described as follows: Anti-inflammatory activity in mouse BV2 cells assessed as inhibition of LPS-induced nitric oxide production after 24 hrs by griess assay. To be noted: for IC50: BV-2, 24 h. The format is functional, cell-based.
Series [2] in a line: Cytotoxicity against LPS-stimulated mouse BV2 cells assessed as cell viability at 20 uM after 24 hrs by MTT assay relative to control. The format is cell-based, BV-2. The conditions noted are these: read-out: Activity. In general terms: Tetrazolium assays rely on reduction of a dye to a coloured formazan, in cell work by metabolically active cells.
The test system of series [3] is BV-2. The series is described as follows: Cytotoxicity against LPS-stimulated mouse BV2 cells assessed as reduction in cell viability at <10 uM after 24 hrs by MTT assay. The format is cell-based. To be noted: bv-2, 24 h.
Series [4] concerns BV-2. Description: Anti-inflammatory activity in mouse BV2 cells assessed as inhibition of LPS-induced iNOS expression after 24 hrs by Western blot analysis. The format is functional, cell-based.
Series [5] deals with BV-2. The series is described as follows: Anti-inflammatory activity in mouse BV2 cells assessed as inhibition of LPS-induced COX2 expression after 24 hrs by Western blot analysis. The format is functional, cell-based. (In general: Immunoblotting shows a protein as a band on a membrane.)
Series [6] deals with BV-2. Description: Anti-inflammatory activity in mouse BV2 cells assessed as inhibition of LPS-induced nitric oxide production pretreated followed by LPS-stimulation by griess assay. The format is functional, cell-based. In general terms: Nitrite, measured by Griess reagent, commonly stands in for NO production.

Some results are limits rather than exact numbers.

As a reminder, the IC50 is the concentration at which inhibition is half-maximal.

On to `C=CCc1ccc(OC)c(-c2cc(COCC(=O)OCC)on2)c1`, for which the IC50 in the series with BV-2 [1] amounted to 25.9 µM. The viability at 24 h, 20 µM in series [2] is 126%.

Consider `CCCn1ccc(-c2cc(CC)ccc2O)n1`, for which the half-inhibitory concentration (IC50) in the series on BV-2 [1] was greater than 200 µM. Moreover, the viability at 24 h, 20 µM in series [2] came out at 109%.

As to `C=CCOCc1cc(-c2cc(CC=C)ccc2OC)no1`, the IC50 in the series on BV-2 [1] came to 28.7 µM. In addition, the viability at 24 h, 20 µM in series [2] worked out at 141%.

Consider `C=CCc1ccc(O)c(-c2ccn(Cc3ccccc3)n2)c1`, for which, in the series on BV-2 [1], the IC50 turned out to be 92.5 µM. For the same molecule, in series [2], the viability at 24 h, 20 µM amounted to 99.5%.

For the molecule `C=CCc1ccc(OC)c(-c2cc(COCc3ccccc3)on2)c1`, the IC50 in the series with BV-2 [1] was greater than 200 µM. Moreover, the viability at 24 h, 20 µM in series [2] is 145%.

Turning to `C=CCn1ccc(-c2cc(Br)ccc2O)n1`, the IC50 with BV-2 [1] is 112 µM. In addition, in series [2], the viability at 24 h, 20 µM was determined as 113%.

As for `C=CCc1ccc(OC)c(-c2cc(CN3CCN(CC(=O)OCC)CC3)on2)c1`, the IC50 in the series with BV-2 [1] was greater than 200 µM. Further, the viability at 24 h, 20 µM in series [2] was determined as 93.2%.

Turning to `Oc1ccc(Br)cc1-c1ccn(-c2ccccc2)n1`, the IC50 in the series with BV-2 [1] was greater than 200 µM. Further, the viability at 24 h, 20 µM in series [2] came out at 109%.

On to `COc1ccc(Br)cc1-c1ccn(-c2ccccc2)n1`, for which the IC50 in the series on BV-2 [1] is greater than 200 µM. Moreover, the viability at 24 h, 20 µM in series [2] is 124%.

Regarding `C=CCc1ccc(OC)c(-c2ccn(CC=C)n2)c1`, the IC50 with BV-2 [1] was greater than 200 µM. In series [2], the viability at 24 h, 20 µM was 109%.

With `C=CCc1ccc(O)c(-c2ccn(CC=C)n2)c1`, the inhibition result in the series on BV-2 [1], with BV-2 [4] and with BV-2 [5] was “Dose-dependent effect” each time. For the same molecule, in the series on BV-2 [1], the IC50 is 1.2 µM. Besides, the viability at 24 h, 20 µM in series [2] came out at 59.9%. Further, the Activity entry with BV-2 [3] is given as “Non-Toxic”.

As for `C=CCn1ccc(-c2cc(Br)ccc2OC)n1`, the IC50 with BV-2 [1] is greater than 200 µM. Besides, the viability at 24 h, 20 µM in series [2] was found to be 92.2%.

On to `COc1ccc(Br)cc1-c1cc(CO)on1`, for which, in the series on BV-2 [1], the IC50 is greater than 200 µM. Also, the viability at 24 h, 20 µM in series [2] was determined as 94.1%.

Take `CCCc1ccc(O)c(-c2ccn(CCC)n2)c1`: the IC50 in the series with BV-2 [1] worked out at 91.3 µM. Also, in series [2], the viability at 24 h, 20 µM turned out to be 129%.

Consider `CNC(=N)NCCC[C@H](N)C(=O)O` [TILARGININE], for which the IC50 with BV-2 [1] turned out to be 26.6 µM. The viability at 24 h, 20 µM in series [2] was 94.4%.

Consider `C=CCc1ccc(OC)c(-c2cc(CN3CCN(CC=C)CC3)on2)c1`, for which the IC50 with BV-2 [1] was 111 µM. Further, in series [2], the viability at 24 h, 20 µM worked out at 101%.

Turning to `C=CCc1ccc(O)c(-c2ccc(OC)c(CC=C)c2)c1` [METHYLHONOKIOL], the IC50 in the series with BV-2 [1] came out at 52.3 µM. Moreover, the viability at 24 h, 20 µM in series [2] is 115%.

Take `CCCc1ccc(O)c(-c2ccn(Cc3ccccc3)n2)c1`: in the series on BV-2 [1], the IC50 was 116 µM. Besides, the viability at 24 h, 20 µM in series [2] is 126%.

Consider `C=CCc1ccc(OC)c(-c2cc(CN3CCN(Cc4ccccc4)CC3)on2)c1`, for which the half-inhibitory concentration (IC50) in the series with BV-2 [1] was greater than 200 µM. Also, the viability at 24 h, 20 µM in series [2] came to 98.6%.

Turning to `C=CCc1ccc(O)c(-c2ccn(-c3ccccc3)n2)c1`, the IC50 in the series on BV-2 [1] came out at 73 µM. Also, in series [2], the viability at 24 h, 20 µM stood at 125%.

In the case of `CCCc1ccc(O)c(-c2cc[nH]n2)c1`, in the series with BV-2 [1], the IC50 is 60.2 µM. Besides, the viability at 24 h, 20 µM in series [2] came out at 94.7%.

Turning to `C=CCc1ccc(O)c(-c2ccc(O)c(CC=C)c2)c1` [HONOKIOL], the IC50 in the series with BV-2 [1] was 17 µM. Further, in series [2], the viability at 24 h, 20 µM was 118%.

In the case of `CCCc1ccc(O)c(-c2ccn(-c3ccccc3)n2)c1`, the IC50 in the series with BV-2 [1] was 109 µM. Moreover, in series [2], the viability at 24 h, 20 µM stood at 125%.

Turning to `CCOC(=O)COCc1cc(-c2cc(Br)ccc2OC)no1`, in the series on BV-2 [1], the IC50 is greater than 200 µM. For the same molecule, the viability at 24 h, 20 µM in series [2] worked out at 122%.

Turning to `COc1ccc(Br)cc1-c1cc(COCc2ccccc2)on1`, in the series on BV-2 [1], the IC50 was greater than 200 µM. For the same molecule, the viability at 24 h, 20 µM in series [2] came to 104%.

With `COc1ccc(Br)cc1-c1ccn(Cc2ccccc2)n1`, the IC50 in the series on BV-2 [1] is greater than 200 µM. For the same molecule, the viability at 24 h, 20 µM in series [2] worked out at 122%.

Turning to `COc1ccc(Br)cc1-c1cc(CN2CCN(C(=O)OC(C)(C)C)CC2)on1`, the IC50 with BV-2 [1] was greater than 200 µM. Further, in series [2], the viability at 24 h, 20 µM is 100%.

As for `C=CCc1ccc(OC)c(-c2cc(CO)on2)c1`, the IC50 in the series with BV-2 [1] is greater than 200 µM. The viability at 24 h, 20 µM in series [2] came to 120%.

With `C=CCc1ccc(OC)c(-c2cc(CCC)on2)c1`, the IC50 in the series with BV-2 [1] is greater than 200 µM. Further, the viability at 24 h, 20 µM in series [2] came to 98.2%.

Take `C=CCOCc1cc(-c2cc(Br)ccc2OC)no1`: in the series on BV-2 [1], the IC50 came to 90.4 µM. Besides, the viability at 24 h, 20 µM in series [2] is 94.6%.

`C=CCc1ccc(O)c(-c2cc(CO)on2)c1`: the IC50 with BV-2 [1] is greater than 200 µM. For the same molecule, the viability at 24 h, 20 µM in series [2] was found to be 126%.

As to `CCCCC/C=C/C(=O)CCc1ccc(O)c(OC)c1` [SHOGAOL], in the series with BV-2 [6], the concentration for half-maximal inhibition (IC50) was 5.59 µM.

Regarding `C=CCc1ccc(OC)c(-c2ccn(-c3ccccc3)n2)c1`, the inhibition entry in the series on BV-2 [1], in the series on BV-2 [4] and with BV-2 [5] was “Dose-dependent effect” each time. Moreover, in the series on BV-2 [1], the IC50 came out at 8.92 µM. The viability at 24 h, 20 µM in series [2] was found to be 68.6%. In addition, in the series with BV-2 [3], the Activity result is on record as “Non-Toxic”.

With `C=CCc1ccc(O)c(-c2cc(CCC)on2)c1`, the IC50 in the series on BV-2 [1] is greater than 200 µM. The viability at 24 h, 20 µM in series [2] was 93.3%.

Regarding `C=CCn1ccc(-c2cc(C=C)ccc2O)n1`, the concentration for half-maximal inhibition (IC50) in the series with BV-2 [1] stood at 30.5 µM. For the same molecule, the viability at 24 h, 20 µM in series [2] was found to be 105%.

Turning to `C=CCc1ccc(OC)c(-c2ccn(Cc3ccccc3)n2)c1`, the IC50 in the series on BV-2 [1] was 36 µM. Besides, in series [2], the viability at 24 h, 20 µM was determined as 112%.

As to `Oc1ccc(Br)cc1-c1ccn(Cc2ccccc2)n1`, the IC50 with BV-2 [1] was greater than 200 µM. Also, the viability at 24 h, 20 µM in series [2] came to 107%.

As for `CCCc1cc(-c2cc(Br)ccc2OC)no1`, the IC50 in the series on BV-2 [1] was greater than 200 µM. Further, in series [2], the viability at 24 h, 20 µM worked out at 97.9%.

For `C=CCc1ccc(OC)c(-c2cc(CN3CCN(C(=O)OC(C)(C)C)CC3)on2)c1`, the IC50 in the series on BV-2 [1] came to 76.9 µM. In series [2], the viability at 24 h, 20 µM was 117%.

The record behind these values is ChEMBL document CHEMBL4308892, “Synthesis and anti-neuroinflammatory activity of N-heterocyclic analogs based on natural biphenyl-neolignan honokiol” (Bioorg Med Chem Lett, 2019).
